According to patent publication US20250084079A1, “COMPOSITIONS AND METHODS FOR INHIBITION OF RAS” (TheRas, Inc., priority 2022, published 2025):
pIC50: −log10 of the molar value. Like-named read-outs stand apart in the source and are kept apart here.

Key:
[1] = target: T1, Avi-KRAS G12D (1-169) GppNHp/RAF1 RBD-3xFLAG (52-151) (Homo sapiens, UniProt P01116, G12D); experiment: RAS-effector PPI HTRF disruption assay, Raf1-GppNHp-KRAS G12D; assay type: biochemical
T1 construct: 100 nM Avi-KRAS G12D (1-169) GppNHp
T1 sequence (P01116 1-169 isoform P01116-2 G12D): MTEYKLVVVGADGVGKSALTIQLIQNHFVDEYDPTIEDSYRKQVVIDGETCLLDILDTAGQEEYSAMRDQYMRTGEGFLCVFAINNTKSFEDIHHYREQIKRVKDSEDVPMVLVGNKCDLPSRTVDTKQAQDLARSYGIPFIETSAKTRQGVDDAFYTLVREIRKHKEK
Procedure, shortened: (§1)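 Each effector pair was tested at its own level (PI3KCA–G12D/Q25A at 375 nM, RAF1 RBD with G12D at 100 nM, and RAF1 RBD with G12V or WT at 50 nM) against compound dilutions from 100 μM down to 0.02 μM. Time-resolved fluorescence after two 1 h room-temperature steps gave IC50 values normalised to DMSO.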

[2] = target: T2, Avi-KRAS G12D/Q25A (1-169) GppNHp/3xFLAG-PI3KCA (157-299) (Homo sapiens, UniProt P01116, G12D/Q25A); experiment: RAS-effector PPI HTRF disruption assay, PI3KCA-GppNHp-KRAS G12D/Q25A; assay type: biochemical
T2 construct: 375 nM Avi-KRAS G12D/Q25A (1-169) GppNHp
T2 sequence (P01116 1-169 isoform P01116-2 G12D/Q25A): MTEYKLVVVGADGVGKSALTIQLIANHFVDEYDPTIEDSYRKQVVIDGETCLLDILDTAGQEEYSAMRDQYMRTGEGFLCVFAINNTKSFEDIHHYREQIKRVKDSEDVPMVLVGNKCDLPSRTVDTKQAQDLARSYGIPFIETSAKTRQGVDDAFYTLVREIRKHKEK
Procedure, shortened: as §1

[3] = target: T3, Avi-KRAS G12V (1-169) GppNHp/RAF1 RBD-3xFLAG (52-151) (Homo sapiens, UniProt P01116, G12V); experiment: RAS-effector PPI HTRF disruption assay, Raf1-GppNHp-KRAS G12V; assay type: biochemical
T3 construct: 50 nM Avi-KRAS G12V (1-169) GppNHp
T3 sequence (P01116 1-169 isoform P01116-2 G12V): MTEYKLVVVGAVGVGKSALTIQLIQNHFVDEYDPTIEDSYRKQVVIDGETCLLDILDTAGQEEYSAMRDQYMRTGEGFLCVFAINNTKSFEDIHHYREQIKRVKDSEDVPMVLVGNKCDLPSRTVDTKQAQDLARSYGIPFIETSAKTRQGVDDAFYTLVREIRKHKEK
Procedure, shortened: as §1

[4] = target: T4, Avi-KRAS WT (1-169) GppNHp/RAF1 RBD-3xFLAG (52-151) (Homo sapiens, UniProt P01116); experiment: RAS-effector PPI HTRF disruption assay, Raf1-GppNHp-KRAS WT; assay type: biochemical
T4 construct: 50 nM Avi-KRAS WT (1-169) GppNHp
T4 sequence (P01116 1-169 isoform P01116-2): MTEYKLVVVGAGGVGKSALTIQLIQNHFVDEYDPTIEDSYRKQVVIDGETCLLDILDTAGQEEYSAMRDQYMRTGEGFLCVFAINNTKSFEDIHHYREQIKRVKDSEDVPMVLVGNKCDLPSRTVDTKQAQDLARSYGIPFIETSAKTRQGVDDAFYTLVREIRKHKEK
Procedure, shortened: as §1

[5] = tested on: pERK in GP2d cells (KRAS G12D); experiment: Cell-based pERK HTRF assay in GP2d cell; conditions: 60 min incubation
Procedure, shortened: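 Phospho-ERK was measured by HTRF in lysates of KRAS G12D GP2d cells after 60 min of compound exposure. Nine concentrations were tested, half-log apart from a 1 μM top, with 0.25% DMSO throughout. Cells had been plated the previous day in DMEM with 10% FBS, and the detection antibodies were incubated 4–24 h at room temperature before reading.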

Row | SMILES | pIC50 [1] | pIC50 [2] | pIC50 [3] | pIC50 [4] | pIC50 ([5]; GP2d, 1 h) | pIC50 ([5]; read-out: pERK-Gp2D-1 hr)
1 | C[C@H]1NCC[C@H]1Oc1nc(OC[C@@]23CCCN2C[C@H](F)C3)nc2c(F)c(-c3ccc(F)c4sc(N)c(C#N)c34)c(C(F)(F)F)cc12 [Compound 47, 2-amino-7-fluoro-4-(8-fluoro-2-(((2R,7aS)-2-fluorotetrahydro-1H-pyrrolizin-7a(5H)-yl)methoxy)-4-(((2R,3R)-2-methylpyrrolidin-3-yl)oxy)-6-(trifluoromethyl)quinazolin-7-yl)benzo[b]thiophene-3-carbonitrile] | ≥ 7.00 | < 5.00 | 6.00 to 7.00 | ≥ 7.00 | ≥ 7.00 | –
2 | C[C@H]1NCC[C@H]1Oc1nc(OC[C@@]23CCCN2C[C@H](F)C3)nc2c(F)c(-c3ccc(F)c4scnc34)c(C(F)(F)F)cc12 [Compound 23] | < 5.00 | < 5.00 | < 5.00 | < 5.00 | < 6.00 | –
3 | C[C@H]1NCC[C@H]1Oc1nc(OC[C@@]23CCCN2C[C@H](F)C3)nc2c(F)c(-c3ccc(F)c4sc(N)c(C#N)c34)ncc12 [Compound 98, 2-amino-7-fluoro-4-(8-fluoro-2-(((2R,7aS)-2-fluorotetrahydro-1H-pyrrolizin-7a(5H)-yl)methoxy)-4-(((2R,3R)-2-methylpyrrolidin-3-yl)oxy)pyrido[4,3-d]pyrimidin-7-yl)benzo[b]thiophene-3-carbonitrile] | 5.00 to 6.00 | < 5.00 | 5.00 to 6.00 | 5.00 to 6.00 | 6.00 to 7.00 | –
4 | CC1(C)NCCC1Oc1nc(OC[C@@]23CCCN2C[C@H](F)C3)nc2c(F)c(-c3ccc(F)c4sc(N)c(C#N)c34)c(C(F)(F)F)cc12 (stereo partly drawn) [Compound 34] | 6.00 to 7.00 | 6.00 to 7.00 | 6.00 to 7.00 | 6.00 to 7.00 | ≥ 7.00 | –
5 | Nc1nc2c(-c3c(C(F)(F)F)cc4c(O[C@H]5CNCC5(F)F)nc(OC[C@@]56CCCN5C[C@H](F)C6)nc4c3F)ccc(F)c2s1 (atropisomer, axis not shown) [Compound 29] | < 5.00 | < 5.00 | < 5.00 | < 5.00 | – | < 6.00
6 | N#Cc1c(N)sc2c(F)ccc(-c3c(C(F)(F)F)cc4c(O[C@@H]5CCN[C@@H]5CF)nc(OC[C@@]56CCCN5C[C@H](F)C6)nc4c3F)c12 [Compound 62] | 6.00 to 7.00 | 5.00 to 6.00 | 5.00 to 6.00 | 6.00 to 7.00 | ≥ 7.00 | –
7 | C[C@H]1NCC[C@@H]1Oc1nc(OC[C@@]23CCCN2C[C@H](F)C3)nc2c(F)c(-c3ccc(F)c4sc(N)c(C#N)c34)c(Cl)cc12 [Compound 59] | 6.00 to 7.00 | 6.00 to 7.00 | 6.00 to 7.00 | 6.00 to 7.00 | ≥ 7.00 | –
8 | N#Cc1c(N)sc2c(F)ccc(-c3ncc4c(O[C@@H]5CCNC5)nc(OC[C@@]56CCCN5C[C@H](F)C6)nc4c3F)c12 [Compound 97] | 5.00 to 6.00 | < 5.00 | < 5.00 | 5.00 to 6.00 | 6.00 to 7.00 | –
9 | N#Cc1c(N)sc2c(F)ccc(-c3c(Cl)cc4c(O[C@H]5CCN[C@@H]5CO)nc(OC[C@@]56CCCN5C[C@H](F)C6)nc4c3F)c12 (atropisomer, axis not shown) [Compound 75] | < 5.00 | < 5.00 | < 5.00 | < 5.00 | – | < 6.00
10 | C[C@@H]1CNCC1Oc1nc(OC[C@@]23CCCN2C[C@H](F)C3)nc2c(F)c(-c3ccc(F)c4sc(N)nc34)c(C(F)(F)F)cc12 (stereo partly drawn) [Compound 16] | 5.00 to 6.00 | 5.00 to 6.00 | 5.00 to 6.00 | 5.00 to 6.00 | – | 6.00 to 7.00
11 | C[C@H]1CNCC1Oc1nc(OC[C@@]23CCCN2C[C@H](F)C3)nc2c(F)c(-c3ccc(F)c4scnc34)c(C(F)(F)F)cc12 (stereo partly drawn) [Compound 12] | < 5.00 | < 5.00 | < 5.00 | < 5.00 | < 6.00 | –
12 | Nc1nc2c(-c3c(C(F)(F)F)cc4c(OC5CC6CC[C@H]5N6)nc(OCC56CCCN5CCC6)nc4c3F)ccc(F)c2s1 (stereo partly drawn) [Compound 36] | 6.00 to 7.00 | < 5.00 | < 5.00 | 5.00 to 6.00 | < 6.00 | –
